# Results as given in ChEMBL document CHEMBL6087396, “Perspective for Drug Discovery Targeting SARS Coronavirus Methyltransferases: Function, Structure and Inhibition” (J Med Chem, 2024).
# Molecular target: T1, Replicase polyprotein 1ab (Severe acute respiratory syndrome coronavirus 2, UniProt P0DTD1)
# Test: Binding affinity to SARS-CoV-2 nsp14 assessed as inhibition constant
# Conditions: not given
row,SMILES,Ki [µM]
1,Nc1ncnc2c1ncn2[C@@H]1O[C@H](CSCCCCNCc2cccc(-c3ccc(Cl)cc3)c2)[C@@H](O)[C@H]1O,6
2,CC(C)N(CCCNC(=O)Nc1ccc(C(C)(C)C)cc1)C[C@H]1O[C@@H](n2cc(Br)c3c(N)ncnc32)[C@H](O)[C@@H]1O,8

# Molecular target: T1, Replicase polyprotein 1ab
# Test: Binding affinity to SARS-CoV-2 nsp14 assessed as dissociation constant
# Conditions: not given
row,SMILES,Kd [µM]
1,NC[C@@H](CC[C@H](N)C(=O)O)C[C@H]1O[C@@H](n2cnc3c(N)ncnc32)[C@H](O)[C@@H]1O,0.0016
2,Nc1ncnc2c1c(C#Cc1cnc3ccccc3c1)cn2[C@@H]1O[C@H](CSCC[C@H](N)C(=O)O)[C@@H](O)[C@H]1O,0.0252

# Molecular target: Replicase polyprotein 1ab
# Test: Inhibition of N-terminal 6His-tagged SARS-CoV nsp14 extracted from Escherichia coli
# Conditions: not given
row,SMILES,IC50 [µM]
1,Cc1cc(=O)oc2cc(NC(=O)[C@H]3O[C@@H](n4cc(C#Cc5cncnc5)c5c(N)ncnc54)[C@H](O)[C@@H]3O)ccc12,31
2,Nc1ncnc2c1ncn2[C@@H]1O[C@H](CSCC[C@H](N)C(=O)O)[C@@H](O)[C@H]1O [S-ADENOSYLHOMOCYSTEINE],16
3,NC[C@@H](CC[C@H](N)C(=O)O)C[C@H]1O[C@@H](n2cnc3c(N)ncnc32)[C@H](O)[C@@H]1O,1.1
4,CC1=C(C)C(=O)C(C(C)(C)CC(=O)N(CCCCSC[C@H]2O[C@@H](n3cnc4c(N)ncnc43)[C@H](O)[C@@H]2O)Cc2cccc(-c3ccc(Cl)cc3)c2)=C(C)C1=O,1.1
5,Nc1ncnc2c1ncn2[C@@H]1O[C@H](CNS(=O)(=O)c2ccc3ccccc3c2)[C@@H](O)[C@H]1O,93
6,Nc1ncnc2c1c(C#Cc1cnc3ccccc3c1)cn2[C@@H]1O[C@H](CSCC[C@H](N)C(=O)O)[C@@H](O)[C@H]1O,0.003
7,COc1ccc(S(=O)(=O)N(C)C[C@H]2O[C@@H](n3cc(C#Cc4cnc5ccccc5c4)c4c(N)ncnc43)[C@H](O)[C@@H]2O)cc1C#N,0.72
8,Nc1ncnc2c1ncn2[C@@H]1O[C@H](CN(CCO[C@@H]2[C@H](O)[C@@H](CO)O[C@H]2n2cnc3c(N)ncnc32)S(=O)(=O)c2ccc(Cl)c([N+](=O)[O-])c2)[C@@H](O)[C@H]1O,0.6
9,Nc1ncnc2c1ncn2[C@@H]1O[C@H](CSCc2cc(C(=O)O)cc(-c3ccccc3)c2)[C@@H](O)[C@H]1O,0.58

# Tested on: SARS-CoV-2
# Test: Antiviral activity against SARS-CoV-2 infected in African green monkey Vero E6 cells assessed as inhibition of viral growth incubated for 72 hrs by plaque assay
# Assay type: functional, organism-based
# Conditions: Severe acute respiratory syndrome coronavirus 2, Vero C1008, 72 h
row,SMILES,EC50 [µM]
1,N#Cc1ccc(N2N=C3c4ccc(C(=O)O)cc4CC[C@@H]3[C@@H]2C2CCCC2)cc1Cl [PF-03882845],0.011
2,O=c1nc2n(CCO)c3ccccc3nc-2c(=O)n1-c1ccccc1,0.0057
3,CCN(C[C@H]1O[C@@H](n2cnc3c(N)ncnc32)[C@H](O)[C@@H]1O)S(=O)(=O)c1ccc(Cl)c(C#N)c1,0.0019
4,O=C(O)C1=CC(=C(c2ccc(O)c(C(=O)O)c2)c2ccc(O)c(C(=O)O)c2)C=CC1=O [AURINTRICARBOXYLIC ACID],0.00047
5,CC(=O)c1cc(O)c2ccccc2c1O,0.0085
6,O=c1c2ccccc2[se]n1-c1ccccc1 [EBSELEN],0.034
